The record followed here is paper PMC5453931, “Cathelicidin-trypsin inhibitor loop conjugate represents a promising antibiotic candidate with protease stability” (Scientific Reports, 2017).

Converted amounts (≈) assume the structure as drawn. Where a SMILES comes first, the peptide text is derived from it.

One data set has as its system K. Pneumoniae 08040202. In words: microbe, parasite or virus in culture. It is filed as cell-based. The conditions noted are these: 08040202, 18 h. In a few lines:
(§1)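 Two-fold broth microdilution in Mueller-Hinton broth: exponential-phase microbes were diluted to 10^6 CFU/mL, then mixed 1:1 with serially diluted peptide. Plates were shaken at 37 °C for 18 h and read at A595. MIC is the lowest concentration with no growth, averaged over three independent experiments.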

A further data set concerns S. Aureus 08032615. In words: microbe, parasite or virus in culture. Format: cell-based. The conditions noted are these: 08032615, 18 h. In a few lines: as §1
The test system of data set [1] is Bacillus subtilis 08042313. In words: microbe, parasite or virus in culture. It is filed as cell-based. The conditions noted are these: 08042313, 18 h. In a few lines: as §1
Data set [2] relates to Candida albicans 08030102. In words: microbe, parasite or virus in culture. The conditions noted are these: 08030102, 18 h. It is filed as cell-based. An outline of the steps:
as §1

The subject of the next data set is S. Aureus 08032810. In words: microbe, parasite or virus in culture. Format: cell-based. The following applies: 08032810, 18 h. An outline of the steps: as §1
For data set [3], the system named is Nocardia asteroides 08052412. In words: microbe, parasite or virus in culture. It is filed as cell-based. The following applies: 18 h. An outline of the steps:
as §1

The test system of another data set is S. Aureus 08032706. In words: microbe, parasite or virus in culture. It is filed as cell-based. The following applies: 08032706, 18 h. An outline of the steps: as §1
For another data set, the system named is Vibrio harveyi. In words: microbe, parasite or virus in culture. Format: cell-based. The conditions noted are these: 18 h. In a few lines:
as §1

The subject of the next data set is S. Maltophilia 090223. In words: microbe, parasite or virus in culture. It is filed as cell-based. The following applies: 090223, 18 h. An outline of the steps: as §1
The next data set has as its system Proteus mirabilis 1376. In words: microbe, parasite or virus in culture. It is filed as cell-based. The following applies: 1376, 18 h. In a few lines:
as §1

For the next data set, the system named is Aeromonas veronii. In words: microbe, parasite or virus in culture. Format: cell-based. The conditions noted are these: 18 h. An outline of the steps: as §1
Data set [4] has as its system Shigella dysenteriae 0804203. In words: microbe, parasite or virus in culture. The conditions noted are these: Gram-negative; two-fold broth microdilution, MH broth, 37 °C, 18 h; mean of three independent experiments in duplicates. It is filed as cell-based. An outline of the steps: as §1
For orientation: In broth dilution the organism is exposed to a series of concentrations in liquid medium.

For data set [5], the system named is Escherichia coli ATCC25922. In words: microbe, parasite or virus in culture. It is filed as cell-based. The following applies: ATCC25922, 18 h. An outline of the steps: as §1
The subject of another data set is E. Coli 08032823. In words: microbe, parasite or virus in culture. Format: cell-based. The following applies: 08032823, 18 h. An outline of the steps: as §1
Another data set relates to P. Aeruginosa 08021015. In words: microbe, parasite or virus in culture. It is filed as cell-based. The following applies: 08021015, 18 h. An outline of the steps: as §1
The next data set has as its system K. Pneumoniae 08031012. In words: microbe, parasite or virus in culture. Format: cell-based. The following applies: 08031012, 18 h. An outline of the steps: as §1
Data set [6] concerns Enterococcus faecium 08052315. In words: microbe, parasite or virus in culture. Format: cell-based. The following applies: 08052315, 18 h. In a few lines: as §1
For data set [7] the following is noted: 20% fresh human serum, 37 °C, colonies surviving 1 × MIC, Fig. 3B.
A further data set concerns trypsin. In words: Protease stability, RP-HPLC analysis of degradation. Format: in vitro ADME. The following applies: trypsin, 300:1, 0.1 M NH4HCO3 pH 8.2, 37 °C, 6 h; RP-HPLC; Fig. 4. As to the method: To further examine the stability of TIH3F incubated with enzymes (trypsin and protease K) over time, the LC analysis of peptide degradation over a series of time spans (0, 6, 12, 24 h) was performed. TIH3F and protease solution were prepared in 0.1 M NH4HCO3 buffer (pH 8.2) to final molar ratio of 300:1, and incubated at 37 °C for 6, 12, and 24 h, respectively. Then 150 μL aliquots were taken at given time intervals, diluted with 150 μL of water/acetonitrile (60/40 v/v) containing 2% TFA, and analyzed by RP-HPLC (Thermo Scientific Syncronis C18 column, 250 mm × 4.6 mm, 5 μm), eluted with acetonitrile/water (containing 0.1% TFA) mixture of linear gradient concentration.

The next data set deals with P. aeruginosa. It is filed as cell-based. The conditions noted are these: 18 h. In a few lines:
as §1

Another data set has as its system P. mirabilis. Format: cell-based. The conditions noted are these: 18 h. An outline of the steps:
as §1

The next data set deals with S. aureus. Format: cell-based. The conditions noted are these: 18 h. An outline of the steps:
as §1

For the next data set, the system named is B. subtilis. It is filed as cell-based. The conditions noted are these: 18 h. In a few lines: as §1
Another data set deals with S. dysenteria. It is filed as cell-based. The following applies: two-fold broth microdilution, MH broth, 37 °C, 18 h, A595; mean of three independent experiments in duplicate. In a few lines: as §1
For another data set, the system named is C. albican. Format: cell-based. The following applies: 18 h. An outline of the steps: as §1
The test system of the next data set is E. coli. It is filed as cell-based. The following applies: 18 h. In a few lines:
as §1

The next data set has as its system E. coli 08040726. It is filed as cell-based. The conditions noted are these: 08040726, 18 h. An outline of the steps:
as §1

The next data set concerns trypsin or proteinase K. The conditions noted are these: peptide:protease 300/1 mol/mol, 30 min, 37 °C, then 1 × MIC 2 h with E. coli, S. aureus, C. albicans; colony counting; Fig. 3E.
Data set [8] has as its system C. albicans biofilm formation. In words: Biofilm inhibition assay (XTT). It is filed as cell-based. The following applies: Candida albicans, 4 μg/mL, 36 h, 35 °C, Fig. 2A. As to the method: TIH3F that has the best antifungal activity among the four peptides was chosen to examine the effect on the C. albicans biofilm formation and the established biofilm using previously described method with minor modifications. In the biofilm inhibition assay, after the incubation at 35 °C, C. Albicans was diluted to 1 × 10^6 CFU/mL in RPMI-1640 medium. Then 2 mL culture was added to each well of 6-well plates with coverslips at the bottom, and incubated at 35 °C in a humid chamber for 3 h. Non-adherent cells were then washed away by PBS, and series concentrations of TIH3F (0, 1, 2, 4 μg/mL) were added into the plate, with amphotericin B as control. The formation of the biofilm was determined by the XTT Cell Proliferation and Cytotoxicity Kit (KeyGEN BioTECH, Nanjing, China) after 36-h incubation. In the biofilm disruption assay, the biofilm was preformed as described above but with a longer incubation time up to 72 h. Then TIH3F and amphotericin B of series concentrations (0, 2.5, 5, 10, 25, 50 μg/mL) was added after non-adherent cells were washed out. The measurement of remaining biofilm was then determined. […] After washing with PBS, the plate was immediately photographed with fluorescence microscope.
A general note: Tetrazolium assays rely on reduction of a dye to a coloured formazan, in cell work by metabolically active cells.

Data set [9] has as its system established C. albicans biofilm. In words: Biofilm disruption assay, established biofilm (XTT, PI/SYBR Green I). It is filed as cell-based. The following applies: 5 μg/mL, biofilm preformed 72 h, XTT metabolic activity; Fig. 2B. The procedure:
TIH3F that has the best antifungal activity among the four peptides was chosen to examine the effect on the C. albicans biofilm formation and the established biofilm using previously described method with minor modifications. In the biofilm inhibition assay, after the incubation at 35 °C, C. Albicans was diluted to 1 × 10^6 CFU/mL in RPMI-1640 medium. Then 2 mL culture was added to each well of 6-well plates with coverslips at the bottom, and incubated at 35 °C in a humid chamber for 3 h. Non-adherent cells were then washed away by PBS, and series concentrations of TIH3F (0, 1, 2, 4 μg/mL) were added into the plate, with amphotericin B as control. The formation of the biofilm was determined by the XTT Cell Proliferation and Cytotoxicity Kit (KeyGEN BioTECH, Nanjing, China) after 36-h incubation. In the biofilm disruption assay, the biofilm was preformed as described above but with a longer incubation time up to 72 h. Then TIH3F and amphotericin B of series concentrations (0, 2.5, 5, 10, 25, 50 μg/mL) was added after non-adherent cells were washed out. The measurement of remaining biofilm was then determined. In order to further confirm the antifungal effect of TIH3F against C. albicans encased in biofilms, the established biofilm was treated with TIH3F (0, 5, 50 μg/mL), washed three times with PBS, and finally stained with 1 mL 1000-fold diluted PI/SYBR Green I at 30 °C in the dark for 20 min. After washing with PBS, the plate was immediately photographed with fluorescence microscope.

Take `CC(C)C[C@H](NC(=O)[C@H](CCCNC(=N)N)NC(=O)[C@H](CCCCN)NC(=O)[C@H](Cc1ccccc1)NC(=O)[C@H](Cc1ccccc1)NC(=O)[C@@H](N)CCCCN)C(=O)N[C@@H](CC(C)C)C(=O)N[C@@H](CCCCN)C(=O)N[C@@H](CO)C(=O)N[C@H](C(=O)N[C@@H](CCCNC(=N)N)C(=O)N[C@@H](CCCNC(=N)N)C(=O)N[C@@H](C)C(=O)N[C@H](C(=O)N[C@@H](CCCCN)C(=O)N[C@@H](CCCCN)C(=O)N[C@@H](Cc1ccccc1)C(N)=O)C(C)C)C(C)C` [Hc3] (H-KFFKRLLKSVRRAVKKF-NH2): the “MIC K. Pneumoniae 08040202” value against K. Pneumoniae 08040202 was found to be 75 µg/mL (≈ 34.9 µM). Also, in the data set with S. Aureus 08032615, the “MIC S. Aureus 08032615” value is 9.38 µg/mL (≈ 4.36 µM). Also, the “MIC Bacillus subtilis 08042313” value in data set [1] came to 9.38 µg/mL (≈ 4.36 µM). Moreover, in [2], the “MIC Candida albicans 08030102” value was 9.38 µg/mL (≈ 4.36 µM). Also, the “MIC S. Aureus 08032810” value in the data set on S. Aureus 08032810 came to 75 µg/mL (≈ 34.9 µM). Besides, in data set [3], the “MIC Nocardia asteroides 08052412” value came to 4.69 µg/mL (≈ 2.18 µM). In the data set with S. Aureus 08032706, the “MIC S. Aureus 08032706” value was determined as 75 µg/mL (≈ 34.9 µM). Besides, in the data set with Vibrio harveyi, the “MIC Vibrio harveyi” value turned out to be 18.75 µg/mL (≈ 8.72 µM). In the data set with S. Maltophilia 090223, the “MIC S. Maltophilia 090223” value is 9.38 µg/mL (≈ 4.36 µM). Moreover, in the data set with Proteus mirabilis 1376, the “MIC Proteus mirabilis 1376” value stood at 4.68 µg/mL (≈ 2.18 µM). In the data set with Aeromonas veronii, the “MIC Aeromonas veronii” value was found to be 9.38 µg/mL (≈ 4.36 µM). The “MIC Shigella dysenteriae 0804203” value in [4] turned out to be 2.34 µg/mL (≈ 1.09 µM). In addition, in data set [5], the “MIC Escherichia coli ATCC25922” value amounted to 18.75 µg/mL (≈ 8.72 µM). Moreover, in the data set on E. Coli 08032823, the “MIC E. Coli 08032823” value is 9.38 µg/mL (≈ 4.36 µM). Besides, the “MIC P. Aeruginosa 08021015” value against P. Aeruginosa 08021015 turned out to be 9.38 µg/mL (≈ 4.36 µM). The “MIC K. Pneumoniae 08031012” value against K. Pneumoniae 08031012 came out at 75 µg/mL (≈ 34.9 µM). The “MIC Enterococcus faecium 08052315” value in data set [6] turned out to be 9.38 µg/mL (≈ 4.36 µM). Also, the “bactericidal ability after incubation with human serum” value in data set [7] (3 h) is listed as “dropped more than half”. The “kill (%) after incubation with human serum” value in data set [7] (6 h) was “almost diminished”. Besides, in [7] (36 h), the “kill (%) / antimicrobial activity kept after incubation with human serum” value was “lost its bacterial inhibitory activity”. Moreover, in the data set on trypsin, the degradation by trypsin entry was “the majority of which was rapidly digested”. Moreover, in the data set with P. aeruginosa, the “MIC P. aeruginosa” value stood at 9.38 µg/mL (≈ 4.36 µM). Further, the “MIC P. mirabilis” value against P. mirabilis is given as 4.68 µg/mL (≈ 2.18 µM). Besides, the “MIC S. aureus” value with S. aureus is on record as 9.38 µg/mL (≈ 4.36 µM). Also, the “MIC B. subtilis” value in the data set with B. subtilis is 9.38 µg/mL (≈ 4.36 µM). The “MIC S. dysenteria” value in the data set on S. dysenteria came to 2.34 µg/mL (≈ 1.09 µM). Moreover, the “MIC C. albican” value in the data set with C. albican was 9.38 µg/mL (≈ 4.36 µM). For the same molecule, the “MIC E. coli” value against E. coli turned out to be 18.75 µg/mL (≈ 8.72 µM). The “MIC E. coli 08040726” value in the data set with E. coli 08040726 was found to be 37.5 µg/mL (≈ 17.4 µM). Also, the “antimicrobial activity after treatment with trypsin or proteinase K” value in the data set on trypsin or proteinase K is given as “almost lost its bactericidal ability”.
As for `C[C@@H]1[C@H](O)[C@@H](C)/C=C/C=C/C=C/C=C/C=C/C=C/C=C/[C@H](O[C@@H]2O[C@H](C)[C@@H](O)[C@H](N)[C@@H]2O)C[C@@H]2O[C@](O)(C[C@@H](O)C[C@@H](O)[C@H](O)CC[C@@H](O)C[C@@H](O)CC(=O)O[C@H]1C)C[C@H](O)[C@H]2C(=O)O` [amphotericin B, reference compound], the inhibition – broadly, how much of the control response was suppressed – at 4 µg/mL in data set [8] came out at 25%. Moreover, in data set [9], the “damage of established C. albicans biofilm” value was “remained intact”.
